From PMC6620010, “Purification and characterization of Terfezia claveryi TcCAT-1, a desert truffle catalase upregulated in mycorrhizal symbiosis” (PLoS ONE, 2019)

Tested on: T1, TcCAT-1
T1 construct: native, purified from wild ascocarps (Zarzadilla de Totana, Lorca, Murcia, Spain); large-subunit monofunctional heme catalase, Clade 2, L2 group
Experiment: H2O2 decomposition at […] nm
Type: biochemical, Terfezia claveryi
Conditions: 10 mM H2O2, 0.1 M sodium phosphate pH 7.0, room temperature

NO [hydroxylamine]
IC50: 0.1 ± 0.01 µM

OCCS [2-mercaptoethanol]
IC50 (text b58 prints 0.125 mM): 130 ± 20 µM
